Measured values taken from ChEMBL document CHEMBL1133669 (J Med Chem, 2000).

What was measured:
Carbonic anhydrase 4 = target: T1, Carbonic anhydrase 4 (Bos taurus, UniProt Q95323)
T1 sequence (Q95323 whole entry): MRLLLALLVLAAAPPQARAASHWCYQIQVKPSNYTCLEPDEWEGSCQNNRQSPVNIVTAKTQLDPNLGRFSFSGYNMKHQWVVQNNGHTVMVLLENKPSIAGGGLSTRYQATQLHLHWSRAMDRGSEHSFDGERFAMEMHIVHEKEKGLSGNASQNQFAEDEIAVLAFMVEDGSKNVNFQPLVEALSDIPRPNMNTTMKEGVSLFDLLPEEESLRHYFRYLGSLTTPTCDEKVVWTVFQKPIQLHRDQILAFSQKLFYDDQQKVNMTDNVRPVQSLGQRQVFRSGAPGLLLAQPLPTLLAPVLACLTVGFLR
Description: Inhibitory activity against bovine carbonic anhydrase IV (CA4), isolated from bovine lung microsomes

Carbonic anhydrase 1 = Carbonic anhydrase 1 (Homo sapiens, UniProt P00915)
Description: Inhibitory activity against human carbonic anhydrase I (CA1)

Rattus norvegicus [1] = assay: Renal excretion of bicarbonate after administration of 5 mg/kg in rats.; format: functional, Kidney
Rattus norvegicus [2] = assay: Renal excretion of bicarbonate after administration of 4 mg/kg in rats.; format: functional, Kidney
Rattus norvegicus [3] = organism: Rattus norvegicus; conditions: dose 10 mg/kg

Sequence of Carbonic anhydrase 1 (P00915 whole entry): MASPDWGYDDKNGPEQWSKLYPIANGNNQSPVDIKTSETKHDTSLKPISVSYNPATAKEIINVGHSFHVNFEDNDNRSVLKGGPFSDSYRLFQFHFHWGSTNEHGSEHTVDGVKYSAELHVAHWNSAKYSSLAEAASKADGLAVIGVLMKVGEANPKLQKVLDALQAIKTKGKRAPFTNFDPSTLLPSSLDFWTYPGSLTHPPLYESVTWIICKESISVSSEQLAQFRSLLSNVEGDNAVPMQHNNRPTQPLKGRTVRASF

Ki (Carbonic anhydrase 4) [nM]	Ki (Carbonic anhydrase 1) [nM]	SMILES	Bicarbonate level (Rattus norvegicus [1])	Bicarbonate level (Rattus norvegicus [2])	Bicarbonate level (Rattus norvegicus [3])
8	11	Cc1cc(-c2ccccc2)cc(C)[n+]1CC(=O)Nc1ccc(S(=O)(=O)/N=c2/sc(S(N)(=O)=O)nn2C)cc1			
17	205	Cc1cc(-c2ccccc2)cc(C)[n+]1CC(=O)Nc1nnc(S(N)(=O)=O)s1.[O-][Cl+3]([O-])([O-])[O-]	38		
10	13	CCc1cc(-c2ccccc2)cc(CC)[n+]1CC(=O)Nc1ccc(S(=O)(=O)/N=c2/sc(S(N)(=O)=O)nn2C)cc1.[O-][Cl+3]([O-])([O-])[O-]		40	

Second part, the molecule before the results:

SMILES	Ki (Carbonic anhydrase 4) [nM]	Ki (Carbonic anhydrase 1) [nM]	Bicarbonate level (Rattus norvegicus [1])	Bicarbonate level (Rattus norvegicus [2])	Bicarbonate level (Rattus norvegicus [3])
CC(C)c1cc(-c2ccccc2)cc(C(C)C)[n+]1CC(=O)OCCOc1ccc2nc(S(N)(=O)=O)sc2c1	30	11			
CC(C)c1cc(-c2ccccc2)cc(C(C)C)[n+]1CC(=O)/N=c1/sc(S(N)(=O)=O)nn1C.[O-][Cl+3]([O-])([O-])[O-]	35	300	40		
NS(=O)(=O)c1nnc(NS(=O)(=O)c2ccccc2)s1 [BENZOLAMIDE]					115
